# How the values were obtained:
# rat plasma albumin [1] = biological target: T1, rat plasma albumin (Rattus norvegicus, UniProt P02770); experiment: biochemical; format: binding
# rats = experiment: Clinical signs in rats after oral dosing
# erythrocyte AChE [2] = biological target: erythrocyte AChE (Rattus norvegicus, UniProt P37136); experiment: Erythrocyte AChE inhibition after oral dosing of rats; format: in vivo, F344 rats
# rat plasma albumin [3] = biological target: T1, rat plasma albumin; experiment: Plasma albumin binding by pesticide in vivo after oral dosing of rats; design: species or system F344 rats; details: for inhibition of binding of the ^3H-DFP-radiolabelled albumin molecules in vivo: 25% of LD50, plasma 1 day after dosing
# Erythrocyte AChE [4] = details: steady (linear) recovery; ref Mason [2000]; cited from earlier work
# T1 sequence (P02770 25-608): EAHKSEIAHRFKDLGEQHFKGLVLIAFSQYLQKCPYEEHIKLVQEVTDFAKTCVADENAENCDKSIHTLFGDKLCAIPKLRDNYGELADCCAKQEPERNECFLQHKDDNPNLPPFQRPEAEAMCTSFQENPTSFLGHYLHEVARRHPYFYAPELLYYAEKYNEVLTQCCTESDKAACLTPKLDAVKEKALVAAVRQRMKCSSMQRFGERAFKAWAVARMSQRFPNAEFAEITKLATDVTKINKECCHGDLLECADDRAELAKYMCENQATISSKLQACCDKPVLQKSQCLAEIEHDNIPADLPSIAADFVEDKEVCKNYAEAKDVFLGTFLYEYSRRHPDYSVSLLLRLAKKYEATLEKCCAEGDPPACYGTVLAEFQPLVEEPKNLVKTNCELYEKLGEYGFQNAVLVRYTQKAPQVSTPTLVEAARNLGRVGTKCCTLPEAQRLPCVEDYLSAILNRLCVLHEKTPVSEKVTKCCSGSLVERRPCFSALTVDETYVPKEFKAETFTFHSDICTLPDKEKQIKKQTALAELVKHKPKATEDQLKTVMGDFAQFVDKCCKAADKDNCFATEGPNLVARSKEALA
compound,measurement,setting,value
"COP(=O)(OC)SCn1c(=O)oc2cc(Cl)cnc21 [Azamethiphos (oxon), S-6-chloro-2,3-dihydro-2-oxo-1,3-oxazolo[4,5-b]pyridin-3-ylmethyl O,O-dimethyl phosphorothioate]",rat plasma albumin binding (^3H-DFP radiolabelling) reduced from controls,rat plasma albumin [1],9±1%
"CCOP(=O)(OCC)OC(=CCl)c1ccc(Cl)cc1Cl [Chlorfenvinphos (oxon), 2-chloro-1-(2,4-dichlorophenyl)vinyl diethyl phosphate]",clinical signs,rats; 12.5% of LD50 (1.25 mg kg^−1),not the lower dose
same,clinical signs,rats; 80% of LD50 (8.0 mg kg^−1),salivation and muscle fasciculation in all rats
same,inhibition at 1.25 mg/kg,"erythrocyte AChE [2]; rat, po, read-out: erythrocyte AChE inhibition",22%
same,IC50,rat plasma albumin [1],~400 nM
same,^3H-DFP incorporation into rat plasma albumin versus controls (significance),rat plasma albumin [1],significantly different from controls
same,rat plasma albumin binding (^3H-DFP radiolabelling) reduced from controls,rat plasma albumin [1],67±2%
same,inhibition of binding of the ^3H-DFP-radiolabelled albumin molecules in vivo,rat plasma albumin [3],approximately 50%
same,^3H-DFP radiolabelled albumin molecules bound in vivo,"rat plasma albumin [3]; each of the doses 12.5%, 25% and 80% of LD50, 24 h after dosing",approximately 50%
CCOC(=O)CC(SP(=O)(OC)OC)C(=O)OCC (stereo not shown) [Malaoxon],rat plasma albumin binding (^3H-DFP radiolabelling) reduced from controls,rat plasma albumin [1],8±1%
"CCOC(=O)CC(SP(=S)(OC)OC)C(=O)OCC (stereo not shown) [Malathion, diethyl (dimethoxyphosphinothioylthio)succinate]",erythrocyte AChE inhibition,"erythrocyte AChE [2]; rats, oral, (approximately) 25% of LD50, Day 1 (24 h) after dosing",57%
"CCN(CC)c1nc(C)cc(OP(=S)(OC)OC)n1 [Pirimiphos-methyl, O-2-diethylamino-6-methylpyrimidin-4-yl O,O-dimethyl phosphorothioate]",inhibition of binding of the ^3H-DFP-radiolabelled albumin molecules in vivo,rat plasma albumin [3],approximately 50%
COP(=O)(OC)OC=C(Cl)Cl [dichlorvos],time for erythrocyte AChE to return to control levels,Erythrocyte AChE [4],approximately 82 days
